Reference: US8895549B2, “Aminoalcohol substituted 2,3-dihydroimidazo[1,2-c]quinazoline derivatives useful for treating hyper-proliferative disorders and diseases associated with angiogenesis” (Bayer Intellectual Property GmbH, priority 2010, dated 2014)

How the values were obtained:
[1] = biological target: PI3Kα (complex of human p110α and human p85α) (Homo sapiens (Human), UniProt P42336); test: PI3Kα kinase assay (HTRF-based PI3K inhibition assay); type: biochemical; conditions: for inhibition at 0.93 µM: 0.93 μM compound, read-out: PI3K alpha average % Inhibition at 0.93 μM; for IC50: 10 μM ATP, 10 μM PIP2, 20 min at 22° C., read-out: average IC50 in the PI3K alpha biochemical assay;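 for all read-outs here: PIP3 product detected by HTRF, reading resonance energy transfer from Europium-labeled anti-GST antibody to Streptavidin-APC, as displacement of biotinylated PIP3 tracer from the GST-PH domain complex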
Sequence of PI3Kα (complex of human p110α and human p85α) (P42336 whole entry, the tested form may be a part): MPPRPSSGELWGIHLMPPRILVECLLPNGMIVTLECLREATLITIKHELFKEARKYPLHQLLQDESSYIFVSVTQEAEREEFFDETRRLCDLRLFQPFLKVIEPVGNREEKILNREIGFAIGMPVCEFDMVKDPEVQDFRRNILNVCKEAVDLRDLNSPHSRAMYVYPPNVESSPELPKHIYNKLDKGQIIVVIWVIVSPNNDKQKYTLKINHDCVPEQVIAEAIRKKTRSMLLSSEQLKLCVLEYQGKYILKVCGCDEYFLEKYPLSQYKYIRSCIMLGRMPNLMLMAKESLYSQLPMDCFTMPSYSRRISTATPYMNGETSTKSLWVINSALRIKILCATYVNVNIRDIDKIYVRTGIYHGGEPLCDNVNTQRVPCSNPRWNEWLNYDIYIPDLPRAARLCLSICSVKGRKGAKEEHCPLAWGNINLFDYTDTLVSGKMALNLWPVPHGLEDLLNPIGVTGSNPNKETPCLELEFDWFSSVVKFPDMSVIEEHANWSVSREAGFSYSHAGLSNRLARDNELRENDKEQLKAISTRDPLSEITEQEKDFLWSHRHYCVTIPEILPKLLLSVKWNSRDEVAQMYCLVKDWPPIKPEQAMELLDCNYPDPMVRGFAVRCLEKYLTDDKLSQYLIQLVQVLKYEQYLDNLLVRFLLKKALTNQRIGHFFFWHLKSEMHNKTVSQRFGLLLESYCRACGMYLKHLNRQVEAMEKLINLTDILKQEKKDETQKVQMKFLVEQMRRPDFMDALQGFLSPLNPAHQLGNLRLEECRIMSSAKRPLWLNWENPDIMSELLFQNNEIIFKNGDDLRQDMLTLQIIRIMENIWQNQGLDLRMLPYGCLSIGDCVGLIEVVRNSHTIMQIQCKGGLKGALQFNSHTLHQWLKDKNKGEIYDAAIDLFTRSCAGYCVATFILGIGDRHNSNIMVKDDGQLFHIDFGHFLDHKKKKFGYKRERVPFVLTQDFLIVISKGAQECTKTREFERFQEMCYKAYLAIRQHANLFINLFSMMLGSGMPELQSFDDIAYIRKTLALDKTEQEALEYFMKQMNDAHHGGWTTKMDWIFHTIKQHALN
Sequence of PI3Kα (complex of human p110α and human p85α) (P27986 whole entry partner, the tested form may be a part): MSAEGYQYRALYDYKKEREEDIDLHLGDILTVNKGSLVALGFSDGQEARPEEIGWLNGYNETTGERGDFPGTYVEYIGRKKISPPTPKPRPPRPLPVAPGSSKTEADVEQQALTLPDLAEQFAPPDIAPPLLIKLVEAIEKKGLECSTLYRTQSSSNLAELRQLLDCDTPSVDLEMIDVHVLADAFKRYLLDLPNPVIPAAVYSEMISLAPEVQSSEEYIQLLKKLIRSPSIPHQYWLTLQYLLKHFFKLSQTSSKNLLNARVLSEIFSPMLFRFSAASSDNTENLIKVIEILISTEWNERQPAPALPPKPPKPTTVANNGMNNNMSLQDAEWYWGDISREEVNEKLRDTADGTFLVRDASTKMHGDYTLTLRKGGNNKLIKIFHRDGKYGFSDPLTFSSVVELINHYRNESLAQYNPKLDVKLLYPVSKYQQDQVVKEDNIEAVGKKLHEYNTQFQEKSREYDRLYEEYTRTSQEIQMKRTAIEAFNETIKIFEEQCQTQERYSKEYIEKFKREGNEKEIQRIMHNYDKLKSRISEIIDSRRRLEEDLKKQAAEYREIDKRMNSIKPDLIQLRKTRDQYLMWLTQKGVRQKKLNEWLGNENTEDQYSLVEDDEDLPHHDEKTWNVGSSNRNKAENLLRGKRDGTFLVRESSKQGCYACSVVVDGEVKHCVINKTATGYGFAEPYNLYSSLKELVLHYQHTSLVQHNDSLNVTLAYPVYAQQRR
Description: (§1) Determination of % Inhibition and IC50 Values of Compounds in PI3Kα Kinase Assay
PI3Kα inhibitory activity of compounds of the present invention was quantified employing the HTRF-based PI3K inhibition assay as described below.
(§2) As reagents for the kinase reaction itself and the quantification of the reaction product, the PI3-Kinase HTRF Assay kit from Millipore (#33-017) was used. With this kit the phosphatidylinositol 3,4,5-trisphosphate (PIP3) generated in the kinase reaction is detected by displacement of a biotinylated ligand from an energy transfer complex consisting of a Europium-labeled anti-GST monoclonal antibody, a GST-tagged PH domain, biotinylated PIP3 and Streptavidin-Allophycocyanin (APC).
For the assay 50 nL of a 80-fold concentrated solution of the test compound in DMSO was pipetted into a black low volume 384-well microtiter plate (Greiner Bio-One, Frickenhausen, Germany), 3 μL of a solution of PI3Kα and phosphatidylinositol-4,5-bisphosphate (PIP2, 13.8 μM=> final conc. in 4 μl reaction volume=10 μM) in 1× reaction buffer (exact composition not disclosed by the vendor) were added and the mixture was incubated for 15 min at 22° C. to allow pre-binding of the test compounds to the enzyme before the start of the kinase reaction. The amount of PI3Kα was chosen to have the enzyme reaction in the linear range and depended on the activity of the individual lot, typical concentrations in assay were in the range of 90 ng/mL. Then the kinase reaction was started by the addition of 1 μL of a solution of adenosine triphosphate (ATP, 40 μM=> final conc. in the 4 μL assay volume is 10 μM) in reaction buffer and the resulting mixture was incubated for a reaction time of 20 min at 22° C.
The reaction was stopped by the addition of 1 μL of an stop solution (containing the biotinylated PIP3 used as a tracer), then 1 μL detection mix (containing a Europium-labeled anti-GST monoclonal antibody, a GST-tagged PH domain, and Streptavidin-Allophycocyanin) was added and resulting mixture was incubated 3 h at 22° C. to allow the formation of complexes between the detection reagents and either the PIP3 generated in the kinase reaction, or the biotinylated PIP3 added with the stop solution. Subsequently, the amount of energy transfer complex consisting of a Europium-labeled anti-GST monoclonal antibody, a GST-tagged PH domain, biotinylated PIP3 and Streptavidin-Allophycocyanin (APC) was evaluated by measurement of the resonance energy transfer from the Europium-labeled anti-GST monoclonal antibody to the Streptavidin-Allophycocyanin. Therefore, the fluorescence emissions at 620 nm and 665 nm after excitation at 350 nm were measured using a TR-FRET reader, e.g., a Pherastar (BMG Labtechnologies, Offenburg, Germany) or a Viewlux (Perkin-Elmer). The ratio of the emissions at 665 nm and at 622 nm was taken as the measure for the amount of biotinylated PIP3 bound to the GST-tagged PH domain, which is negatively correlated with the amount of PIP3 generated.

[2] = biological target: PI3Kβ (complex of human p110β and human p85α) (Homo sapiens (Human), UniProt P42338); test: PI3Kβ kinase assay (HTRF-based PI3K inhibition assay); type: biochemical; conditions: for inhibition at 0.93 µM: 0.93 μM compound, read-out: PI3K beta average % Inhibition at 0.93 μM; for IC50: 10 μM ATP, 10 μM PIP2, 20 min at 22° C., read-out: average IC50 in the PI3K beta biochemical assay; for PI3K beta average IC50/PI3K alpha average IC50: ratio of beta IC50 to alpha IC50;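 for all read-outs here: Kinase-made PIP3 detected by HTRF, displacing biotinylated PIP3 tracer from a complex of Europium anti-GST antibody, GST-fused PH domain and Streptavidin-APC, read as Europium-to-APC energy transfer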
Sequence of PI3Kβ (complex of human p110β and human p85α) (P42338 whole entry, the tested form may be a part): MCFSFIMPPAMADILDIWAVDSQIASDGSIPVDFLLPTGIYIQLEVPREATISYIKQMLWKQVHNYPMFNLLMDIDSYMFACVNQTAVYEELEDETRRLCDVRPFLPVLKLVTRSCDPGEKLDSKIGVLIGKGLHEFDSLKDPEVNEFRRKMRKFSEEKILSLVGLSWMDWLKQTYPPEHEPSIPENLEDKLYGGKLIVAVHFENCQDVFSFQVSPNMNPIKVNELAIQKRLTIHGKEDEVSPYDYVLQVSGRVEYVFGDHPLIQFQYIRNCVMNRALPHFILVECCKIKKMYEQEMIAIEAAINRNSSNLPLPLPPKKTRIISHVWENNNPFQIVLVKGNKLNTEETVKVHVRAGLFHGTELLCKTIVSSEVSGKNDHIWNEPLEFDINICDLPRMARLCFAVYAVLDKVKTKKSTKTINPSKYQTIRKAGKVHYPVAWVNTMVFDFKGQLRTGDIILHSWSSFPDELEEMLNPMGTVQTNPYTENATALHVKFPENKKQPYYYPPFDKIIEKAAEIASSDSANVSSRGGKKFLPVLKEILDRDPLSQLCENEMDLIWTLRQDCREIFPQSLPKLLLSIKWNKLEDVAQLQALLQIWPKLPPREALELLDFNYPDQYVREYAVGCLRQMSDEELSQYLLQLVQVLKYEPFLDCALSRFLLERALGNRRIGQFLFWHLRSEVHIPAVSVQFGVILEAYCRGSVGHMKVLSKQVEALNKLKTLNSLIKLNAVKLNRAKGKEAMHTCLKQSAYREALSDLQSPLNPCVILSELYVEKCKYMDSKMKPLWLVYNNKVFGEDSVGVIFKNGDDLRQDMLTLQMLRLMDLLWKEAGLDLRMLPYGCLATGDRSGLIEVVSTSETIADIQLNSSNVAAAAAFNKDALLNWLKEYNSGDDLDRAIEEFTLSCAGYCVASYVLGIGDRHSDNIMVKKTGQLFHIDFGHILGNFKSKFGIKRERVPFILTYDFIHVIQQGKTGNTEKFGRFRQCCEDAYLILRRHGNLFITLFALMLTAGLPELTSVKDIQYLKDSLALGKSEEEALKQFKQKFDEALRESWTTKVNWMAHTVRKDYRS
Sequence of PI3Kβ (complex of human p110β and human p85α) (P27986 whole entry partner, the tested form may be a part): as the sequence (P27986 whole entry partner, the tested form may be a part) above
Description: as §1
PI3Kα inhibitory activity of compounds of the present invention was quantified employing the HTRF based PI3K inhibition assay as described below.
as §2
For the assay 50 nL of a 80-fold concentrated solution of the test compound in DMSO was pipetted into a black low volume 384-well microtiter plate (Greiner Bio-One, Frickenhausen, Germany), 3 μl of a solution of PI3Kβ and phosphatidylinositol-4,5-bisphosphate (PIP2, 13.8 μM=> final conc. in 4 μl reaction volume=10 μM) in 1× reaction buffer (exact composition not disclosed by the vendor) were added and the mixture was incubated for 15 min at 22° C. to allow pre-binding of the test compounds to the enzyme before the start of the kinase reaction. The amount of PI3Kβ was chosen to have the enzyme reaction in the linear range and depended on the activity of the individual lot, typical concentrations in assay were in the range of 120 ng/mL. Then the kinase reaction was started by the addition of 1 μL of a solution of adenosine triphosphate (ATP, 40 μM=> final conc. in the 4 μl assay volume is 10 μM) in reaction buffer and the resulting mixture was incubated for a reaction time of 20 min at 22° C.
The reaction was stopped by the addition of 1 μL of an stop solution (containing the biotinylated PIP3 used as a tracer). Then 1 μL detection mix (containing a Europium-labeled anti-GST monoclonal antibody, a GST-tagged PH domain, and Streptavidin-Allophycocyanin) was added and resulting mixture was incubated for 3 h at 22° C. to allow the formation of complexes between the detection reagents and either the PIP3 generated in the kinase reaction, or the biotinylated PIP3 added with the stop solution. Subsequently the amount of energy transfer complex consisting of a Europium-labeled anti-GST monoclonal antibody, a GST-tagged PH domain, biotinylated PIP3 and Streptavidin-Allophycocyanin (APC) was evaluated by measurement of the resonance energy transfer from the Europium-labeled anti-GST monoclonal antibody to the Streptavidin-Allophycocyanin. Therefore, the fluorescence emissions at 620 nm and 665 nm after excitation at 350 nm were measured using a TR-FRET reader, e.g., a Pherastar (BMG Labtechnologies, Offenburg, Germany) or a Viewlux (Perkin-Elmer). The ratio of the emissions at 665 nm and at 622 nm were taken as the measure for the amount of biotinylated PIP3 bound to the GST-tagged PH domain, which is negatively correlated with the amount of PIP3 generated.

| SMILES | inhibition at 0.93 µM [1] | IC50 [1] | inhibition at 0.93 µM [2] | IC50 [2] | PI3K beta average IC50/PI3K alpha average IC50 [2] |
| --- | --- | --- | --- | --- | --- |
| COc1c(OC[C@H](O)CN2CCOCC2)ccc2c1N=C(NC(=O)c1cccnc1)N1CCN=C21 [Example 2, N-(8-{[(2R)-2-hydroxy-3-(morpholin-4-yl)propyl]oxy}-7-methoxy-2,3-dihydroimidazo[1,2-c]quinazolin-5-yl)pyridine-3-carboxamide] | 97.6% |  | 94.4% |  |  |
| COc1c(OC[C@@H](O)CN2CCOCC2)ccc2c1N=C(NC(=O)c1cccnc1)N1CCN=C21 [Example 3, N-(8-{[(2S)-2-hydroxy-3-(morpholin-4-yl)propyl]oxy}-7-methoxy-2,3-dihydroimidazo[1,2-c]quinazolin-5-yl)pyridine-3-carboxamide] | 103% |  | 92.9% |  |  |
| COc1c(OC[C@H](O)CN2CCC2)ccc2c1N=C(NC(=O)c1cccnc1C)N1CCN=C21 [Example 16, N-(8-{[(2R)-3-(Azetidin-1-yl)-2-hydroxypropyl]oxy}-7-methoxy-2,3-dihydroimidazo[1,2-c]quinazolin-5-yl)-2-methylpyridine-3-carboxamide] | 109% | 10 to 50 nM | 87.7% | 10 to 50 nM | 3.94 |
| COc1c(OC[C@H](O)CN(C)C)ccc2c1N=C(NC(=O)c1cccnc1)N1CCN=C21 [Example 11, N-(8-{[(2R)-3-(dimethylamino)-2-hydroxypropyl]oxy}-7-methoxy-2,3-dihydroimidazo[1,2-c]quinazolin-5-yl)pyridine-3-carboxamide] | 82% | 10 to 50 nM | 95.5% | 10 to 50 nM | 1.60 |
| COc1c(OC[C@H](O)CN2C[C@@H](C)O[C@@H](C)C2)ccc2c1N=C(NC(=O)c1cccnc1C)N1CCN=C21 [Example 17, N-[8-({(2R)-3-[(2R,6S)-2,6-dimethylmorpholin-4-yl]-2-hydroxypropyl}oxy)-7-methoxy-2,3-dihydroimidazo[1,2-c]quinazolin-5-yl]-2-methylpyridine-3-carboxamide] | 109% | < 10 nM | 87.2% | 10 to 50 nM | 5.36 |
| COc1c(OCC(O)CN2CCSCC2)ccc2c1N=C(NC(=O)c1cccnc1)N1CCN=C21 (stereo not drawn) [Example 6, N-{8-[2-hydroxy-3-(thiomorpholin-4-yl)propoxy]-7-methoxy-2,3-dihydroimidazo[1,2-c]quinazolin-5-yl}pyridine-3-carboxamide] | 91.2% | < 10 nM | 84.1% | > 50 nM |  |
| COc1c(OC[C@H](O)CN2CCCC2)ccc2c1N=C(NC(=O)c1scnc1C)N1CCN=C21 [Example 38, N-(8-{[(2R)-2-Hydroxy-3-(pyrrolidin-1-yl)propyl]oxy}-7-methoxy-2,3-dihydroimidazo[1,2-c]quinazolin-5-yl)-4-methyl-1,3-thiazole-5-carboxamide] | 92.8% | < 10 nM | 95.1% | < 10 nM | 5.64 |
| COc1c(OC[C@H](O)CN2CC3CCC(C2)O3)ccc2c1N=C(NC(=O)c1cccnc1)N1CCN=C21 [Example 5, N-(8-{[(2R)-2-hydroxy-3-(8-oxa-3-azabicyclo[3.2.1]oct-3-yl)propyl]oxy}-7-methoxy-2,3-dihydroimidazo[1,2-c]quinazolin-5-yl)pyridine-3-carboxamide] | 101% | < 10 nM | 104% | 10 to 50 nM | 3.68 |
| COc1c(OC[C@H](O)CN2CCC2)ccc2c1N=C(NC(=O)c1cncs1)N1CCN=C21 [Example 35, N-(8-{[(2R)-3-(Azetidin-1-yl)-2-hydroxypropyl]oxy}-7-methoxy-2,3-dihydroimidazo[1,2-c]quinazolin-5-yl)-1,3-thiazole-5-carboxamide] | 109% | < 10 nM | 102% | 10 to 50 nM | 6.30 |
| COc1c(OC[C@H](O)CN2C[C@@H](C)O[C@@H](C)C2)ccc2c1N=C(NC(=O)c1cccnc1)N1CCN=C21 [Example 4, N-[8-({(2R)-3-[(2R,6S)-2,6-dimethylmorpholin-4-yl]-2-hydroxypropyl}oxy)-7-methoxy-2,3-dihydroimidazo[1,2-c]quinazolin-5-yl]pyridine-3-carboxamide] | 99.8% | 10 to 50 nM | 96.4% | > 50 nM | 4.85 |
| COc1c(OC[C@H](O)CN2CCOCC2)ccc2c1N=C(NC(=O)c1sc(N)nc1C)N1CCN=C21 [Example 39, 2-Amino-N-(8-{[(2R)-2-hydroxy-3-(morpholin-4-yl)propyl]oxy}-7-methoxy-2,3-dihydroimidazo[1,2-c]quinazolin-5-yl)-4-methyl-1,3-thiazole-5-carboxamide] | 110% | < 10 nM | 122% | < 10 nM | 5.32 |
| COc1c(OC[C@H](O)CN2C[C@@H](C)O[C@@H](C)C2)ccc2c1N=C(NC(=O)c1cncs1)N1CCN=C21 [Example 34, N-[8-({(2R)-3-[(2R,6S)-2,6-dimethylmorpholin-4-yl]-2-hydroxypropyl}oxy)-7-methoxy-2,3-dihydroimidazo[1,2-c]quinazolin-5-yl]-1,3-thiazole-5-carboxamide] | 94.2% | < 10 nM | 97.1% | 10 to 50 nM | 7.21 |
| COc1c(OC[C@H](O)CN2CCC2)ccc2c1N=C(NC(=O)c1cccnc1)N1CCN=C21 [Example 7, N-(8-{[(2R)-3-(azetidin-1-yl)-2-hydroxypropyl]oxy}-7-methoxy-2,3-dihydroimidazo[1,2-c]quinazolin-5-yl)pyridine-3-carboxamide] | 99.5% | 10 to 50 nM | 97.3% | > 50 nM | 2.22 |

The next lines start with the values.

| inhibition at 0.93 µM [1] | IC50 [1] | inhibition at 0.93 µM [2] | IC50 [2] | PI3K beta average IC50/PI3K alpha average IC50 [2] | SMILES |
| --- | --- | --- | --- | --- | --- |
| 110% | < 10 nM | 108% | 10 to 50 nM | 8.83 | COc1c(OC[C@H](O)CN2CCOCC2)ccc2c1N=C(NC(=O)c1cnc3[nH]cnc3c1)N1CCN=C21 [Example 30, N-(8-{[(2R)-2-Hydroxy-3-(morpholin-4-yl)propyl]oxy}-7-methoxy-2,3-dihydroimidazo[1,2-c]quinazolin-5-yl)-3H-imidazo[4,5-b]pyridine-6-carboxamide] |
| 102% | < 10 nM | 101% | 10 to 50 nM | 2.62 | COc1c(OC[C@H](O)CN2CCCC2)ccc2c1N=C(NC(=O)c1cccnc1)N1CCN=C21 [Example 8, N-(8-{[(2R)-2-hydroxy-3-(pyrrolidin-1-yl)propyl]oxy}-7-methoxy-2,3-dihydroimidazo[1,2-c]quinazolin-5-yl)pyridine-3-carboxamide] |
| 95.7% | < 10 nM | 99.3% | 10 to 50 nM | 5.83 | COc1c(OC[C@H](O)CN(C(C)C)C(C)C)ccc2c1N=C(NC(=O)c1cncs1)N1CCN=C21 [Example 41, N-(8-{[(2R)-3-(dipropan-2-ylamino)-2-hydroxypropyl]oxy}-7-methoxy-2,3-dihydroimidazo[1,2-c]quinazolin-5-yl)-1,3-thiazole-5-carboxamide] |
| 102% | < 10 nM | 98.6% | 10 to 50 nM | 4.20 | COc1c(OC[C@H](O)CN(C(C)C)C(C)C)ccc2c1N=C(NC(=O)c1cccnc1C)N1CCN=C21 [Example 20, N-(8-{[(2R)-3-(dipropan-2-ylamino)-2-hydroxypropyl]oxy}-7-methoxy-2,3-dihydroimidazo[1,2-c]quinazolin-5-yl)-2-methylpyridine-3-carboxamide] |
| 102% | < 10 nM | 106% | < 10 nM | 6.75 | COc1c(OC[C@H](O)CN(C)C)ccc2c1N=C(NC(=O)c1cnc(N)nc1)N1CCN=C21 [Example 29, 2-Amino-N-(8-{[(2R)-3-(dimethylamino)-2-hydroxypropyl]oxy}-7-methoxy-2,3-dihydroimidazo[1,2-c]quinazolin-5-yl)pyrimidine-5-carboxamide] |
| 103% | < 10 nM | 93.7% | 10 to 50 nM | 2.98 | COc1c(OC[C@H](O)CN2CCCCC2)ccc2c1N=C(NC(=O)c1cncs1)N1CCN=C21 [Example 37, N-(8-{[(2R)-2-Hydroxy-3-(piperidin-1-yl)propyl]oxy}-7-methoxy-2,3-dihydroimidazo[1,2-c]quinazolin-5-yl)-1,3-thiazole-5-carboxamide] |
| 96.9% | < 10 nM | 103% | 10 to 50 nM | 3.90 | COc1c(OC[C@H](O)CN2CCCC2)ccc2c1N=C(NC(=O)c1cccnc1C)N1CCN=C21 [Example 18, N-(8-{[(2R)-2-hydroxy-3-(pyrrolidin-1-yl)propyl]oxy}-7-methoxy-2,3-dihydroimidazo[1,2-c]quinazolin-5-yl)-2-methylpyridine-3-carboxamide] |
